Reference: ChEMBL document CHEMBL1201862, “PubChem BioAssay data set” (2004)
Active and inactive are the calls of the source.

What was measured:
Format in all cases: functional
[1] = HEp-2 cell cytotoxicity, dose response, cytotoxicity control for RSV inhibitor project, HTS (AID 2410); settings: human respiratory syncytial virus
Fatty acid synthase [2] = target: T1, Fatty acid synthase (Homo sapiens, UniProt P49327); assay: FAS thioesterase domain inhibitors, dose response, biochemical, endpoint fluorescence intensity, uHTS hits (AID 624327);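 further: fluorescence from hydrolysis of an O-methyl fluorescein acyl ester substrate by the enzyme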
T1 sequence (P49327 whole entry, the tested form may be a part): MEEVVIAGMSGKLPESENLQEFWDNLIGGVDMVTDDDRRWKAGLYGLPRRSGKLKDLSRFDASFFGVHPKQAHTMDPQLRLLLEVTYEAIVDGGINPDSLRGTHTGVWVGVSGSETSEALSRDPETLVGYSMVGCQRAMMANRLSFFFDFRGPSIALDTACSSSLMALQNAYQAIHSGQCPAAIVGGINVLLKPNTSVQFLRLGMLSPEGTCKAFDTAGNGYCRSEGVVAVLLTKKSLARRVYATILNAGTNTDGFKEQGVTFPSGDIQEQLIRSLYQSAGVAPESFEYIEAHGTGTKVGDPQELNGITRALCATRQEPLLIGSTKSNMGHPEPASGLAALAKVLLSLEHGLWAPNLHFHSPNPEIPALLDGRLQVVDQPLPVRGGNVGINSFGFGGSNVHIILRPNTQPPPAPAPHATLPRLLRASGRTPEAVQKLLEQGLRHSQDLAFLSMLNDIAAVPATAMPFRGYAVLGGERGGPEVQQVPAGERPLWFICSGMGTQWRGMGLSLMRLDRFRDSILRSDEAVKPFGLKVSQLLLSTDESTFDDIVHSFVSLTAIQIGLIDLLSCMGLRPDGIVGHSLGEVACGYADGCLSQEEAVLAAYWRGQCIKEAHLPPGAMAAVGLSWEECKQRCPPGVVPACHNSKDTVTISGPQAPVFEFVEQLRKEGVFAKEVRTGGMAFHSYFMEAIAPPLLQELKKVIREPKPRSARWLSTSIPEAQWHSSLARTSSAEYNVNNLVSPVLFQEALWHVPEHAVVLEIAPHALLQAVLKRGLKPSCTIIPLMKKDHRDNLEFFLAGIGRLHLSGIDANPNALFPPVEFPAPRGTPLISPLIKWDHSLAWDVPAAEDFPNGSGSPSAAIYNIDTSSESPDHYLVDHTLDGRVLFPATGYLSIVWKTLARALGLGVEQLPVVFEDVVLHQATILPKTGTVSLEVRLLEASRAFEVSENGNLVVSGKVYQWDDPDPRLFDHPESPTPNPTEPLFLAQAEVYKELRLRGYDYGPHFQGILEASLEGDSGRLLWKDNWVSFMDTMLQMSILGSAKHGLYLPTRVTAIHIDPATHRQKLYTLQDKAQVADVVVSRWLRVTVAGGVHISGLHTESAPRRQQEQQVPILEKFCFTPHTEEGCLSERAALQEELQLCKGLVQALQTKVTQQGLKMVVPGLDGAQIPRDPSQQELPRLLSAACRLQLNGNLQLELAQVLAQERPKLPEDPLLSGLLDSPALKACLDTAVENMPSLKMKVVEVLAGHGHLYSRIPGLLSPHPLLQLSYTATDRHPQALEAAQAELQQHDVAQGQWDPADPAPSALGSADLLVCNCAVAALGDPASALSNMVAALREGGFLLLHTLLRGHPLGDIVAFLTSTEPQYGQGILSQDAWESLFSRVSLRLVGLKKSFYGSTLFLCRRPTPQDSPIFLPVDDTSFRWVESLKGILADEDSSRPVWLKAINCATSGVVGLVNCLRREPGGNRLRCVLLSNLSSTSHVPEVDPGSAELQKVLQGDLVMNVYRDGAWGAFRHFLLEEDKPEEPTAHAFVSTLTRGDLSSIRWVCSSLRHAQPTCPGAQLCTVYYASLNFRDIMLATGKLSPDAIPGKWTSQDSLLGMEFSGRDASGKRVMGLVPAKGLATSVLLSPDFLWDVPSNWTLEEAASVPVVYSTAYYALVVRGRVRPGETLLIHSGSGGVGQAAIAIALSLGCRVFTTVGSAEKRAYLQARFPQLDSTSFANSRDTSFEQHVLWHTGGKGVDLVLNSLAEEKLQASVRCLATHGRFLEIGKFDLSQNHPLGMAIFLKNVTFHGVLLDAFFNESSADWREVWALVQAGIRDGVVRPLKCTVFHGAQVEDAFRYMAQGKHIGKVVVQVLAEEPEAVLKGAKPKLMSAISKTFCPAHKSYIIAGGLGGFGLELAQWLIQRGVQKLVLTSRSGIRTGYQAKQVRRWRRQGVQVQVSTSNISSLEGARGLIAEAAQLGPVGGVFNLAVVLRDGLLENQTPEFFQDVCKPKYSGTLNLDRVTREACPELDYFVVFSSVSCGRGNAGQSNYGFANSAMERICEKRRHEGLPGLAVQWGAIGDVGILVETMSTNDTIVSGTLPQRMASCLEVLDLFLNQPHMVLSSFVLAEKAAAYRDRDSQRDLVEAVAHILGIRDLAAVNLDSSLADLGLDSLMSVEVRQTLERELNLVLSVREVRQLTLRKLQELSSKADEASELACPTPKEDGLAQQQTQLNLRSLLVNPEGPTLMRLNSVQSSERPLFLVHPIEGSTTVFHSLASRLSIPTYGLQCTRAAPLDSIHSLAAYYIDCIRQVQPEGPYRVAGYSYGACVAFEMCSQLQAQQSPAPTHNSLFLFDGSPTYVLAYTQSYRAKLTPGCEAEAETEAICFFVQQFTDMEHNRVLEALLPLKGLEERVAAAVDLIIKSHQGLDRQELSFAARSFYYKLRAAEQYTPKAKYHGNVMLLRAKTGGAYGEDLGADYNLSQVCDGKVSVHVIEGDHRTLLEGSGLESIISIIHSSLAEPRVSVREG

Fatty acid synthase [3] = target: T1, Fatty acid synthase; assay: FAS thioesterase domain inhibitors, dose response, biochemical, kinetic fluorescence intensity (AID 624326);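 further: rate of fluorescence rise from hydrolysis of a fluorogenic O-methyl fluorescein ester substrate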
[4] = Luminescence Cell-Based Dose Response HTS to Identify Activators of Luciferase Translation or Activity in H4 […] Cells. [Related pubchem assays: 1829 (Project Summary), 1814 (Primary HTS)]

| SMILES | IC50 (Fatty acid synthase [2]) | IC50 (Fatty acid synthase [3]) | CC50 [1] | EC50 [4] |
| --- | --- | --- | --- | --- |
| Cc1cc(C)c2c(c1)cc(C)c1nnc(SCC(=O)N3CCCc4ccccc43)n12 |  |  | 44.2 µM (active) |  |
| CCOC(=O)c1ccc2[nH]c3c(c2c1)CCCC3O (configuration not stated) |  |  | 47.1 µM (active) |  |
| CC(C(=O)NCCc1ccccc1)N1c2cccc3cccc(c23)S1(=O)=O (configuration not stated) |  |  | 45.6 µM (active) |  |
| COc1ccc(-c2cc(-c3ccccc3O)[nH]n2)cc1OC |  |  | > 50 µM (active) |  |
| Cc1c(Br)c([N+](=O)[O-])nn1CC(=O)N1CCc2ccccc2C1 | 4.38 µM (active) | 6.67 µM (active) |  |  |
| COc1ccc(N2CCN(C(=O)c3ccc(-n4nc(C)cc4C)cc3)CC2)cc1 |  |  | 42 µM (active) |  |
| CCCC(C)C1c2c(c(C)c(C)oc2=O)Oc2c(C)c(C)oc(=O)c21 (configuration not stated) | 9.33 µM (active) | 8.38 µM (active) |  |  |
| O[C@H]1C[C@H](c2ccccc2)N(CC2CCCCC2)C[C@@H]1n1cc(C2CC2)nn1 | 8.28 µM (active) | 6.52 µM (active) |  |  |
| COc1ccc(C2=NC(c3ccccc3)CO2)cc1 (configuration not stated) |  |  |  | 39.5 µM (active) |

Further lines, with some results ahead:

| IC50 (Fatty acid synthase [2]) | IC50 (Fatty acid synthase [3]) | SMILES | CC50 [1] | EC50 [4] |
| --- | --- | --- | --- | --- |
| 11.8 µM (active) | 14 µM (active) | Cc1ccc(/C=C/c2ccc(=O)n(Cc3ccc(F)cc3)n2)cc1 |  |  |
| 3.51 µM (active) | 6.15 µM (active) | COc1ccc(C(=O)CN(CCC(=O)O)S(=O)(=O)c2ccc([N+](=O)[O-])cc2)cc1 |  |  |
| 12.1 µM (active) | 10.6 µM (active) | O=[N+]([O-])c1ccc(CSc2ccc(S(=O)(=O)N3CCCC3)cn2)cc1 |  |  |
| 3.92 µM (active) | 3.98 µM (active) | CC(OC(=O)c1cccc([N+](=O)[O-])c1)C(=O)N1CCc2ccccc21 (configuration not stated) |  |  |
| 9.63 µM (active) | 6.51 µM (active) | O=C(COC(=O)c1cc([N+](=O)[O-])ccc1N1CCOCC1)c1ccccc1 |  |  |
